Assay results taken from patent US20140371244A1, “METHOD FOR TREATING PROSTATE CANCER BY USE OF PHARMACEUTICAL COMPOSITION CONTAINING A3 ADENOSINE RECEPTOR AGONIST” (priority 2009, published 2014).

Tests used:
[1] = test system: human colorectal cancer HCT 116 cells; test: SRB assay, growth of HCT 116 cells; type: cell-based; details: 72 hours; for growth of HCT 116 cells: 100, 50, 25 and 12.5 μM; for IC50: SRB
Procedure: In order to compare the inhibitory effect of thio-Cl-IB-MECA of the present invention on the inhibition of human colorectal cancer HCT 116 cells with the effects of other A3 adenosine receptor agonists, IB-MECA and Cl-IB-MECA, a sulforhodamine B (SRB) assay was performed.
Specifically, 10 μL of a solution of thio-Cl-IB-MECA in 10% dimethylsulfoxide (DMSO) was loaded in each well of a 96-well plate in triplicate at concentrations of 100, 50, 25 and 12.5 μM, thus making a test plate. Cells were diluted to a density of 5×10^4 cells/ml with 10% FBS-containing RPMI 1640 medium supplemented with antibiotics-antimycotics, and 190 μL of the cell suspension was added to each well so as to reach a total volume of 200 μL and was cultured in a 5% CO2 incubator at 37° C. for 3 days. At the same time, 190 μL of the same cell suspension was loaded into each of 16 wells or more of a fresh 96-well plate containing no sample (thio-Cl-IB-MECA) and was cultured in a 5% CO2 incubator at 37° C. for 30 minutes, thereby determining reference date. After the culture, 50 μL of 50% trichloroacetic acid (TCA) was added to each well, and the cells were fixed by culture at 4° C. for 1 hour. Then, the well plate was washed five times with tap water and dried. 100 μL of a 1% acetic acid solution containing […] sulforhodamine B (SRB) was added to each well to stain the cells, and the well plate was allowed to stand at room temperature for 1 hour. After the well plate has been washed five times with 1% acetic acid and sufficiently dried, 200 μL of 100 mM Tris-base was added to each well, and the bound staining liquid was dissolved and sufficiently shaken in a shaker. Then, the absorbance at 515 nm was measured using an ELISA microplate reader. Based on the measured absorbance, the cell viability of the test group relative to the control group was calculated using equation 2 above. Based on the viability at each concentration, the IC50 value of the test sample was calculated using TableCurve program.
In the cases of IB-MECA or Cl-IB-MECA, the viability of cancer cells was examined in the same manner as the case of thio-Cl-IB-MECA.

[2] = test system: iNOS (inducible nitric oxide synthase); test: NO production inhibitory activity (iNOS assay) in LPS-stimulated RAW 264.7 cells; type: cell-based, mouse; details: LPS 1 μg/ml; for IC50: RAW 264.7 cells, 20 hours, read-out: IC50 of NO production inhibition
Procedure: A test was carried out to examine the inhibitory activity of the inhibitory activity of the inventive composition on the enzyme iNOS (inducible nitric oxide synthase) whose expression increases when inflammatory reactions and traumas exist.
Specifically, RAW 264.7 cells (5×10^5 cells/ml) were added to a 24-well plate with 10% FBS-containing DMEM medium in an amount of 1 ml per well and cultured for 24 hours. […] After 30 minutes, 1 μg/ml of LPS was added to the cells which were then cultured in a 5% CO2 incubator at 37° C. for 20 hours (test groups). As a blank, RAW cells cultured without addition of LPS and the inventive composition were used, and as a control group, RAW cells cultured with addition of only LPS were used.
100 μl of the supernatant of each well was taken and allowed to react with 90 μl of each of sulfanilamide solution and N-(1-naphtyl)-ethylenediamine solution. Then, each reaction product was measured for absorbance at 540 nm to determine the amount of nitrate or nitrite produced in the culture medium, and the results of the measurement are shown in FIG. 1.
A standard curve was potted using NaNO2 solution, and the NO production inhibitory activity of each of the samples was evaluated by calculating NaNO2 concentration in each test group relative to the control group using the following equation 1 based on the measured absorbance and comparing the calculated NaNO2 concentration with that in the group treated with LPS alone. Inhibition rate (%) was calculated as nitrate concentration using the following equation, and then the IC50 value of the composition was calculated.

[3] = test system: human colorectal cancer HCT 116 cells; test: Cell cycle analysis (FACS) in HCT 116 cells; type: cell-based; details: 40 μM, 24 and 36 hours
Procedure: Cells were treated with 40 μM of thio-Cl-IB-MECA and cultured for 24 and 36 hours, and the cell cycle of the cells was analyzed by flow cytometer analysis (FACS). Specifically, cells were diluted with 10% FBS-containing medium to a density of 1.0×10^6 cells per 100 mm culture dish and cultured under the conditions of 37° C. and 5% CO2 for 24 hours, followed by washing twice with PBS. Thio-Cl-IB-MECA was diluted in 10% FBS-containing medium to a concentration of 40 μM, and then 10 ml of the culture medium prepared in the 100 mm culture dish was added thereto and cultured for a given time. The non-adherent cells and adherent cells in the cell medium were collected and washed twice with PBS, after which 500 μL of 100% cold methanol was added thereto and the cells were fixed at 4° C. The cells were washed twice with PBS and allowed to stand in RNase A-containing solution for 30 minutes, after which the cells were stained with propidium iodide (PI) buffer for 5 minutes. After removal of the PI buffer, the cells were transferred into a polystyrene round-bottom tube, and the cycle of the cells was analyzed by FACScalibur® flow cytometry.

[4] = test system: Human colorectal cancer HCT116 cells; test: Morphological change of HCT116 cells; type: cell-based; details: 40 μM, 48 hours
Procedure: Human colorectal cancer HCT116 cells were treated with 40 μM of thio-Cl-IB-MECA and cultured for 48 hours, and then the morphological change of the cells was observed.
Specifically, HCT116 cells were diluted with 10% FBS (Fetal Bovine Serum)-containing medium to a density of 1.0×10^6 cells per 100 mm culture dish and cultured under the conditions of 37° C. and 5% CO2, followed by washing twice with PBS (Phosphate Buffered Saline). Thio-Cl-IB-MECA was diluted to a concentration of 40 μM, and then 10 ml of the culture medium prepared in the 100 mm culture dish was added thereto and incubated for a given time. The morphology of the cells was observed as a function of treatment time and concentration (FIG. 19).

SMILES	growth of HCT 116 cells [1]	IC50 [1] [µM]	IC50 [2] [µM]	G1 phase of cell cycle, HCT 116 [3]	number of the cells, HCT116 [4]	production of NO ([2]; 5, 10 and 20 μM)
CNC(=O)[C@H]1O[C@@H](n2cnc3c(NCc4cccc(I)c4)ncnc32)[C@H](O)[C@@H]1O [IB-MECA]	concentration-dependently inhibited the growth	62.4	65.7			
CNC(=O)[C@H]1S[C@@H](n2cnc3c(NCc4cccc(I)c4)nc(Cl)nc32)[C@H](O)[C@@H]1O [thio-Cl-IB-MECA, 2-chloro-N^6-(3-iodobenzyl)-4′-thioadenosine-5′-N-methyluronamide]	concentration-dependently inhibited the growth	37.5	16.2	an increase in the G1 phase	decreased	inhibited in a concentration-dependent manner
